Data on 22 compounds can be found in US9382254B2, “Compounds and pharmaceutical compositions thereof for the treatment of cystic fibrosis” (Galapagos NV, priority 2013, dated 2016).

What is called pEC50 is −log10 of the EC50, conventionally taken in molar units. The low end stands for a large EC50, the high end for a small EC50.

One test concerns the target T1, CFTR ΔF508 mutant (Homo sapiens, UniProt P13569, DEL508-508).
T1 construct: expressed in transfected cells; host or cells: CFBE41o- (adenoviral transduction)
The experiment in a line: YFP-halide influx assay for the CFTR-ΔF508 mutation (384 well, FDSS/μCell). Type of test: cell-based. The note with it: CFBE41o- cells, CFTR-ΔF508, 1×D-PBS, fluorescence after 36 seconds. The source says: The YFP halide influx assay measures the functionality of the cystic fibrosis Transmembrane Conductance regulator (CFTR) channels in the cystic fibrosis bronchial epithelium cell line CFBE41o-. The assay is used to evaluate the capacity of compounds to increase the open probability of existing CFTR channels in the membrane. It makes use of the observation that the yellow fluorescent protein (YFP) variant YFP H148Q, I152L has its fluorescence substantially quenched by halide ions like Cl— and I—. (Galietta, Haggie, & Verkman, 2001) (Nagai, et al., 2002)
For this purpose, CFBE41o-cells are seeded in 384 well plates (3000 CFBE cells/well). One day after seeding, the CFBE cells are transduced with adenoviral vectors that direct the expression of the CFTR ΔF508 mutant and of the YFP reporter. Cells are incubated at 27° C., 5% CO2 for 24 hours so as to allow for the proper folding and migration to the membrane of the CFTR channel or treated with a CFTR modulator during 24 h at 37° C.
The I— induced quenching of fluorescence is recorded […] immediately after injection of I— for 2 min on an FDSS/μCell (Hamamatsu). The capacity of a compound to increase the channel opening is directly correlated with the decrease in fluorescence, and is expressed as (1-(fluorescence after 36 seconds (F)/fluorescence before injection (F0))) and an EC50 can be derived from a (1-F/F0) vs compound concentration plot.

The target in another test is T2, CFTR G551D mutant (Homo sapiens, UniProt P13569, G551D).
T2 construct: expressed in transfected cells; host or cells: HEK293 (reverse transfection with plasmid)
T2 sequence (P13569 whole entry G551D): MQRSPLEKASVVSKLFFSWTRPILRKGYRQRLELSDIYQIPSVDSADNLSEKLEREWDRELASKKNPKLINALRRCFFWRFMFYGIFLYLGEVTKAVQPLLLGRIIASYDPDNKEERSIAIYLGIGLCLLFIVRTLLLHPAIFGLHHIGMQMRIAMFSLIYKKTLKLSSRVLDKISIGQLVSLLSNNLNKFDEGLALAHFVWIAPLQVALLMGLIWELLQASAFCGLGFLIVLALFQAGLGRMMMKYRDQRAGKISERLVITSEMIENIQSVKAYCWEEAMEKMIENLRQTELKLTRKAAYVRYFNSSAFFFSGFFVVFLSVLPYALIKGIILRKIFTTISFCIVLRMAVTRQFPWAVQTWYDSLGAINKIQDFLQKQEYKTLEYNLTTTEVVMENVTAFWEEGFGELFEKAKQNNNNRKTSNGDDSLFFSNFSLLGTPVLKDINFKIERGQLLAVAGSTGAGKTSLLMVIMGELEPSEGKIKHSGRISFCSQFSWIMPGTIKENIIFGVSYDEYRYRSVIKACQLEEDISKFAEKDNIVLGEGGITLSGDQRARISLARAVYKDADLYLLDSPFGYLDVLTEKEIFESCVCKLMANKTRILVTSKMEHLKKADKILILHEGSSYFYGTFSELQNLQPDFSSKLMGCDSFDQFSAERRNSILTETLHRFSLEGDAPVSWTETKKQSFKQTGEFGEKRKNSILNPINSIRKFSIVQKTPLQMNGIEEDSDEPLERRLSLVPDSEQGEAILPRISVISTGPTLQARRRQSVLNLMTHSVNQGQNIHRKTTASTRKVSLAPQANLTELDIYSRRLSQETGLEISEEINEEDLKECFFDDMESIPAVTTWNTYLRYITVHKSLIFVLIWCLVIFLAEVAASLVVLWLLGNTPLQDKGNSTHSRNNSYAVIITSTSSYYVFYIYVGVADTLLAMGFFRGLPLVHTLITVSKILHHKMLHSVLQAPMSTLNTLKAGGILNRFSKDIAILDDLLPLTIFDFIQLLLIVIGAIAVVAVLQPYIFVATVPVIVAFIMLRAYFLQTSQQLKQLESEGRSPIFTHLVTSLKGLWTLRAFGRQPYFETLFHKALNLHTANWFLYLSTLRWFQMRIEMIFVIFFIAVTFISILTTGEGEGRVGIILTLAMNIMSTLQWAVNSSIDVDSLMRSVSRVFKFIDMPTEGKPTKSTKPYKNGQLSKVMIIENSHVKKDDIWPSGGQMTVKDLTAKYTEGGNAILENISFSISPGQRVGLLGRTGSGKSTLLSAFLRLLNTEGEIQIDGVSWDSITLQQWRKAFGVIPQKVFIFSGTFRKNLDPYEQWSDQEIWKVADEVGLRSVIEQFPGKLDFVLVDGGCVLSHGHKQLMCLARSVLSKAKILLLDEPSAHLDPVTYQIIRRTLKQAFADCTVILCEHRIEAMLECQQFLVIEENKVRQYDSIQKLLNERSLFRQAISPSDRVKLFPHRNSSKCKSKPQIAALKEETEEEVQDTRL
Nature of the test: YFP-halide influx assay for the CFTR-G551D mutation. Type of test: cell-based. The note with it: HEK293 cells, forskolin 10.67 μM. The source says:
The YFP halide influx assay measures the functionality of the cystic fibrosis Transmembrane Conductance regulator (CFTR) channels. The assay is used to evaluate the capacity of compounds to increase the channel opening of existing mutant CFTR channels in the membrane. It makes use of the observation that the yellow fluorescent protein (YFP) variant YFP H148Q, I152L, […] has its fluorescence substantially quenched by halide ions like Cl^− and I^−. (Galietta, Haggie, & Verkman, 2001)
For this purpose, HEK293-cells are seeded in 96 well plates. During seeding, the cells are reverse-transfected with plasmid vectors that direct the expression of the CFTR G551D mutant and of the YFP reporter. Cells are incubated at 37° C., 5% CO2 for 24 hours so as to allow for sufficient expression of the CFTR protein.
The I^−-induced quenching of fluorescence is recorded immediately after injection of I^− for 7 seconds. The capacity of a compound to increase the channel opening is directly correlated with the decrease in fluorescence, and is expressed as (1-(fluorescence after 7 seconds (F)/fluorescence before injection (F0))) and an EC50 can be derived from a (1-F/F0) vs compound concentration plot.

pEC50: −log10 of the molar value.

T1 sequence (P13569 with tags, fused parts or gaps DEL508-508): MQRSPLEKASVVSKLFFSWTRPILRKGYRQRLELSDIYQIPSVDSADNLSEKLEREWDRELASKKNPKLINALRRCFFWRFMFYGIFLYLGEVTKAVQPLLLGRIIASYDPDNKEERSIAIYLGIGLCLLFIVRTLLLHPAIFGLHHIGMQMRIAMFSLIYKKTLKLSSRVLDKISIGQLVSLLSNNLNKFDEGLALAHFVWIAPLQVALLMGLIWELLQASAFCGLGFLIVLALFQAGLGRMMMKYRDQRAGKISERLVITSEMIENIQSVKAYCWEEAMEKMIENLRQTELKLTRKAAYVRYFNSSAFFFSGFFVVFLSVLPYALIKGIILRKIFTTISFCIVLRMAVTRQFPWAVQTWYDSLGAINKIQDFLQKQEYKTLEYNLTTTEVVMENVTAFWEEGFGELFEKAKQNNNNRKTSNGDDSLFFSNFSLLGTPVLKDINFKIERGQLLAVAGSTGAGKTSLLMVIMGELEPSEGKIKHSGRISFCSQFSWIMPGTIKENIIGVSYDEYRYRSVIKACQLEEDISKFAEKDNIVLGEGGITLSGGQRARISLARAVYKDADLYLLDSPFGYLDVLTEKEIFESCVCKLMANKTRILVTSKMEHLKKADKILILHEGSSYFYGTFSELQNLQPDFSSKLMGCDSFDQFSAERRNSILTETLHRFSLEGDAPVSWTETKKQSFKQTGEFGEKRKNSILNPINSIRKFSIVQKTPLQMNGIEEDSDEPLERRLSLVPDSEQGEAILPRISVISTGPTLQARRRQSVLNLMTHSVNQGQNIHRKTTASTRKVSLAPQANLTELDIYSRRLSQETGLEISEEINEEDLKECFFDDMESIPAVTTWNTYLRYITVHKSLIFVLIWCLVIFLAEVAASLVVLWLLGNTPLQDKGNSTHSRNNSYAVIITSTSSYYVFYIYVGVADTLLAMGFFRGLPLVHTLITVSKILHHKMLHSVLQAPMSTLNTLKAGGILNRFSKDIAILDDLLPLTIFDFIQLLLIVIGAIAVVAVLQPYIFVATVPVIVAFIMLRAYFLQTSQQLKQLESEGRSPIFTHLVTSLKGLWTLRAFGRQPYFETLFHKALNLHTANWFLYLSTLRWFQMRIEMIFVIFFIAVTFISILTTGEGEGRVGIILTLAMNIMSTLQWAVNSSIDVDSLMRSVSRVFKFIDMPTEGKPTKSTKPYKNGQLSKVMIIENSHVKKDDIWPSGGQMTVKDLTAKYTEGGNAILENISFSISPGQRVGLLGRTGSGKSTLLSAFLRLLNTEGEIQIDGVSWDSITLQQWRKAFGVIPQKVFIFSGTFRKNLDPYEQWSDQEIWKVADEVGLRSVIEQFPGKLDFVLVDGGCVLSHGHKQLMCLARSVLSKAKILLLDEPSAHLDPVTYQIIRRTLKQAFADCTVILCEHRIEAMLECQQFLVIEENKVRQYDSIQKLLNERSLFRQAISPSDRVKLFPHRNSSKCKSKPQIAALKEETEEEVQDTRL

Turning to `COc1ccc(OC(F)(F)F)c(S(=O)(=O)c2cc(C(N)=O)c(NC(=O)C(C)CO)s2)c1` (centres unmarked) [Compound 370, 2-[(3-hydroxy-2-methyl-propanoyl)amino]-5-[5-methoxy-2-(trifluoromethoxy)phenyl]sulfonyl-thiophene-3-carboxamide], the values for the negative-log EC50 (pEC50) on CFTR ΔF508 mutant and at CFTR G551D mutant were 8.60 and 7.24, respectively.
As for `COCCOc1ccc(S(=O)(=O)c2cc(C(N)=O)c(NC(=O)C(C)(C)O)s2)cc1` [Compound 371, 2-[(2-hydroxy-2-methyl-propanoyl)amino]-5-[4-(2-methoxyethoxy)phenyl] sulfonyl-1-thiophene-3-carboxamide], the pEC50 is 6.97 at CFTR ΔF508 mutant and 5.48 at CFTR G551D mutant.
Taken in the same sequence, the figures for `CC(C)(O)C(=O)Nc1sc(S(=O)(=O)c2cc(C#N)ccc2OC(F)(F)F)cc1C(N)=O` [Compound 372, 5-[5-cyano-2-(trifluoromethoxy)phenyl] sulfonyl-2-[(2-hydroxy-2-methyl-propanoyl)amino] thiophene-3-carboxamide] were 8.32 and 7.14.
Taken in the same sequence, the figures for `CC(C)(O)C(=O)Nc1sc(S(=O)(=O)c2ccc(OC(F)(F)F)c(F)c2F)cc1C(N)=O` [Compound 378, 5-[2,3-difluoro-4-(trifluoromethoxy)phenyl] sulfonyl-2-[(2-hydroxy-2-methyl-propanoyl)amino] thiophene-3-carboxamide] were 7.58 and 5.73.
As for `CC(C)(O)C(=O)Nc1sc(S(=O)(=O)c2ccc(C#N)cc2)cc1C(N)=O` [Compound 381, 5-(4-cyanophenyl)sulfonyl-2-[(2-hydroxy-2-methyl-propanoyl)amino] thiophene-3-carboxamide], the negative logarithm of the EC50 (pEC50) on CFTR ΔF508 mutant was 7.25; at CFTR G551D mutant, 5.88.
Taken in the same sequence, the figures for `C[C@H](CO)C(=O)Nc1sc(S(=O)(=O)c2ccc(OC(F)(F)F)cc2)cc1C(N)=O` [Compound 382, 2-[[(2R)-3-hydroxy-2-methyl-propanoyl]amino]-5-[4-(trifluoromethoxy)phenyl] sulfonyl-thiophene-3-carboxamide] were 7.18 and 6.06.
For `Cc1cc(S(=O)(=O)c2cc(C(N)=O)c(NC(=O)C(C)(C)O)s2)ncc1F` [Compound 383, 5-[(5-fluoro-4-methyl-2-pyridyl)sulfonyl]-2-[(2-hydroxy-2-methyl-propanoyl)amino] thiophene-3-carboxamide], the negative logarithm of the EC50 (pEC50) is 6.87 at CFTR ΔF508 mutant and 5.58 at CFTR G551D mutant.
With `Cc1ccc(S(=O)(=O)c2cc(C(N)=O)c(NC(=O)C(C)(C)O)s2)nc1` [Compound 384, 2-[(2-hydroxy-2-methyl-propanoyl)amino]-5-[(5-methyl-2-pyridyl)sulfonyl] thiophene-3-carboxamide], the pEC50 at CFTR ΔF508 mutant is 6.80; on CFTR G551D mutant, 5.56.
As to `CC(C)(O)C(=O)Nc1sc(S(=O)(=O)c2ccc(Cl)nc2)cc1C(N)=O` [Compound 385, 5-[(6-chloro-3-pyridyl)sulfonyl]-2-[(2-hydroxy-2-methyl-propanoyl)amino] thiophene-3-carboxamide], the pEC50 at CFTR ΔF508 mutant was 7.20; at CFTR G551D mutant it was 5.93.
For `CC(CO)C(=O)Nc1sc(S(=O)(=O)c2cc(Cl)ccc2OC(F)(F)F)cc1C(N)=O` (centres unmarked) [Compound 386, 5-[5-chloro-2-(trifluoromethoxy)phenyl] sulfonyl-2-[(3-hydroxy-2-methyl-propanoyl)amino] thiophene-3-carboxamide] the same measures were 8.70 and 7.59.
For `CC(C)(O)C(=O)Nc1sc(S(=O)(=O)c2ccc(Cl)cc2OC(F)(F)F)cc1C(N)=O` [Compound 388, 5-[4-chloro-2-(trifluoromethoxy)phenyl] sulfonyl-2-[(2-hyroxy-2-methyl-propanoyl)amino] thiophene-3-carboxamide] the same measures were 7.36 and 6.16.
For the compound `CC(CO)C(=O)Nc1sc(S(=O)(=O)c2ccc(OC(F)(F)F)cn2)cc1C(N)=O` (centres unmarked) [Compound 392, 2-[(3-hydroxy-2-methyl-propanoyl)amino]-5-[[5-(trifluoromethoxy)-2-pyridyl]sulfonyl] thiophene-3-carboxamide], the values for the pEC50 on CFTR ΔF508 mutant and at CFTR G551D mutant were 7.07 and 5.79, respectively.
`CC(C)(O)C(=O)Nc1sc(S(=O)(=O)c2ccc(C(F)F)cn2)cc1C(N)=O` [Compound 395, 5-[[5-(difluoromethyl)-2-pyridyl]sulfonyl]-2-[(2-hydroxy-2-methyl-propanoyl)amino] thiophene-3-carboxamide]: the negative logarithm of the EC50 (pEC50) is 6.53 at CFTR ΔF508 mutant and 5.73 at CFTR G551D mutant.
`CC(O)C(=O)Nc1sc(S(=O)(=O)c2ccc(C(F)(F)F)cn2)cc1C(N)=O` (centres unmarked) [Compound 396, 2-(2-hydroxypropanoylamino)-5-[[5-(trifluoromethyl)-2-pyridyl]sulfonyl] thiophene-3-carboxamide]: the figures for the negative-log EC50 (pEC50) at CFTR ΔF508 mutant and at CFTR G551D mutant were 6.96 and 5.87, respectively.
For `CC(O)C(=O)Nc1sc(S(=O)(=O)c2ccc(C(F)(F)F)cc2)cc1C(N)=O` (centres unmarked) [Compound 398, 2-(2-hydroxypropanoylamino)-5-[4-(trifluoromethyl)phenyl]sulfonyl-thiophene-3-carboxamide] the same measures were 7.64 and 6.29.
Take `Cc1cc(C#N)cc(S(=O)(=O)c2cc(C(N)=O)c(NC(=O)C(C)(C)O)s2)c1` [Compound 399, 5-(3-cyano-5-methyl-phenyl)sulfonyl-2-[(2-hydroxy-2-methyl-propanoyl)amino] thiophene-3-carboxamide]: the pEC50 on CFTR ΔF508 mutant is 7.25; on CFTR G551D mutant, 5.72.
Turning to `COc1ccc(S(=O)(=O)c2cc(C(N)=O)c(NC(=O)C(C)(C)O)s2)cc1` [Compound 400, 2-[(2-hydroxy-2-methyl-propanoyl)amino]-5-(4-methoxyphenyl)sulfonyl-thiophene-3-carboxamide], the negative-log EC50 (pEC50) on CFTR ΔF508 mutant is 7.25; on CFTR G551D mutant, 5.71.
For `CC(O)C(=O)Nc1sc(S(=O)(=O)c2ccc(OC(F)F)cc2)cc1C(N)=O` (centres unmarked) [Compound 403, 5-[4-(difluoromethoxy)phenyl] sulfonyl-2-(2-hydroxypropanoylamino) thiophene-3-carboxamide] the same measures were 7.56 and 5.79.
As for `CC(C)(O)C(=O)Nc1sc(S(=O)(=O)c2ccc(C#N)cc2F)cc1C(N)=O` [Compound 406, 5-(4-cyano-2-fluoro-phenyl)sulfonyl-2-[(2-hydroxy-2-methyl-propanoyl)amino] thiophene-3-carboxamide], the values for the pEC50 on CFTR ΔF508 mutant and on CFTR G551D mutant were 7.25 and 5.88, respectively.
Take `CC(C)(O)C(=O)Nc1sc(S(=O)(=O)c2cccc(C#N)c2)cc1C(N)=O` [Compound 409, 5-(3-cyanophenyl)sulfonyl-2-[(2-hydroxy-2-methyl-propanoyl)amino] thiophene-3-carboxamide]: the pEC50 was 7.32 on CFTR ΔF508 mutant and 5.63 on CFTR G551D mutant.
Consider `COc1c(Cl)ncnc1S(=O)(=O)c1cc(C(N)=O)c(NC(=O)C(C)(C)O)s1` [Compound 414, 5-(6-chloro-5-methoxy-pyrimidin-4-yl)sulfonyl-2-[(2-hydroxy-2-methyl-propanoyl)amino] thiophene-3-carboxamide], for which the figures for the pEC50 on CFTR ΔF508 mutant and at CFTR G551D mutant (class symbol) were 6.95 and < 6.00, respectively.
For the compound `COc1cnc(C(F)(F)F)nc1S(=O)(=O)c1cc(C(N)=O)c(NC(=O)C(C)(C)O)s1` [Compound 415, 2-[(2-hydroxy-2-methyl-propanoyl)amino]-5-[5-methoxy-2-(trifluoromethyl)pyrimidin-4-yl]sulfonyl-thiophene-3-carboxamide], the figures for the negative-log EC50 (pEC50) on CFTR ΔF508 mutant and on CFTR G551D mutant (class symbol) were 6.52 and < 6.00, respectively.
